Tested on: humans having risk factors for atherosclerosis
Assay: Example 4: double-blinded, randomized comparative study of treating elevated cholesterol levels
Assay type: in vivo, human
Settings: at eight weeks, versus baseline
Procedure: A comparative study is executed to determine the effects of methods of treating elevated cholesterol levels comprising administration of each of: Test Sample 1, simvastatin (20 mg) in conjunction with fruit juice; Test Sample 2, simvastatin (10 mg) in conjunction with fruit juice; and Test Sample 3, simvastatin (10 mg) in conjunction with psyllium (15 grams) and fruit juice.
The study is a double-blinded, randomized comparison. Sixty humans, aging from about 30 to about 80 years, are utilized for the study, all of which are determined as having risk factors for atherosclerosis. The humans are randomized to three treatment groups (Treatment Group 1, Treatment Group 2, and Treatment Group 3). Each human stops any lipid-lowering treatment, and baseline lipid levels are obtained.
Treatment Group 1 receives Test Sample 1; Treatment Group 2 receives Test Sample 2; and Treatment Group 3 receives Test Sample 3; all over an eight week period. Test Sample 1 is administered as a concurrent administration once daily. Test Sample 2 is administered as a concurrent administration once daily. For Test Sample 3, 15 grams of psyllium is divided over three daily doses, each with fruit juice, wherein the last administered dose per day is concurrently administered with the simvastatin.
At eight weeks, levels of LDL-cholesterol, total cholesterol, and triglycerides are measured. Triglycerides are found not to be influenced based upon treatment group. However, on average, LDL-cholesterol and total cholesterol is decreased by approximately 29% in Treatment Group 1, LDL-cholesterol and total cholesterol is decreased by approximately 33% in Treatment Group 2, and LDL-cholesterol and total cholesterol is decreased by approximately 38% in Treatment Group 3.

| SMILES | LDL-cholesterol decreased, on average | total cholesterol decreased, on average |
| --- | --- | --- |
| CCC(C)(C)C(=O)O[C@H]1C[C@@H](C)C=C2C=C[C@H](C)[C@H](CC[C@@H]3C[C@@H](O)CC(=O)O3)[C@H]21 [Test Sample 2, simvastatin] | approximately 33% | approximately 33% |
| CCC(C)(C)C(=O)O[C@H]1C[C@@H](C)C=C2C=C[C@H](C)[C@H](CC[C@@H]3C[C@@H](O)CC(=O)O3)[C@H]21 [Test Sample 1, simvastatin] | approximately 29% | approximately 29% |
